Assay results: US20240199618A1, “NOVEL N-ACYL-[3-SUBSTITUTED]-[8-SUBSTITUTED]-5,6-DIHYDRO-[1,2,4]TRIAZOLO[4,3-a]PYRAZINES AS SELECTIVE NK-3 RECEPTOR ANTAGONISTS, PHARMACEUTICAL COMPOSITION, METHODS FOR USE IN NK-3 RECEPTOR-MEDIATED DISORDERS” (Ogeda SA, priority 2013, published 2024)
pIC50, pKi: −log10 of the molar value. Where two headings read alike, the source gives them in different places.

Tests used:
human NK-1 receptor = human NK-1 receptor (Homo sapiens (Human), UniProt P25103); test: Selectivity assay: [3H] substance P binding, human NK-1 receptor; conditions: 2 nM [3H] substance P, CHO membranes; read-out: hNK-1 (Ki)
Chain of human NK-1 receptor (P25103 whole entry): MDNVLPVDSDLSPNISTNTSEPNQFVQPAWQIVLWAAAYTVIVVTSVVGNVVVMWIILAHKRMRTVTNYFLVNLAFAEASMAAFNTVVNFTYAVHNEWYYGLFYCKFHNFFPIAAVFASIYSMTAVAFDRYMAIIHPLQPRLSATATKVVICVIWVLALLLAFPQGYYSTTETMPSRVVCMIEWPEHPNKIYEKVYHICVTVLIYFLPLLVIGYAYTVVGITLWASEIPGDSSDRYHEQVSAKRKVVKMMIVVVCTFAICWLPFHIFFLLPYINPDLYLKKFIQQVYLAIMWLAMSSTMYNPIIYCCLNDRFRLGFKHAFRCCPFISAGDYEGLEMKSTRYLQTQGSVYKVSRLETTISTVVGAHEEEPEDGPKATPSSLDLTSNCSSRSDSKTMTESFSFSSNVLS
Description: Selectivity of the compounds of the invention was determined over the other human NK receptors, namely NK-1 and NK-2 receptors.
The affinity of compounds of the invention for the NK-1 receptor was evaluated in CHO recombinant cells which express the human NK-1 receptor. Membrane suspensions were prepared from these cells. The following radioligand: [^3H] substance P (PerkinElmer Cat #NET111520) was used in this assay. Binding assays were performed in a 50 mM Tris/5 mM MnCl2/150 mM NaCl/0.1% BSA at pH 7.4. Binding assays consisted of 25 μl of membrane suspension (approximately 5 μg of protein/well in a 96 well plate), 50 μl of compound or reference ligand (Substance P) at increasing concentrations (diluted in assay buffer) and 2 nM [^3H] substance P. The plate was incubated 60 min at 25° C. in a water bath and then filtered over GF/C filters (Perkin Elmer, 6005174, presoaked in 0.5% PEI for 2 h at room temperature) with a Filtration unit (Perkin Elmer). The radioactivity retained on the filters was measured by using the TopCount-NXT reader (Packard).

human NK-3 receptor [1] = target: T1, human NK-3 receptor (Homo sapiens (Human), UniProt P29371); test: 3H-SB222200 binding competition assay with human NK-3 receptor
T1 sequence (P29371 whole entry): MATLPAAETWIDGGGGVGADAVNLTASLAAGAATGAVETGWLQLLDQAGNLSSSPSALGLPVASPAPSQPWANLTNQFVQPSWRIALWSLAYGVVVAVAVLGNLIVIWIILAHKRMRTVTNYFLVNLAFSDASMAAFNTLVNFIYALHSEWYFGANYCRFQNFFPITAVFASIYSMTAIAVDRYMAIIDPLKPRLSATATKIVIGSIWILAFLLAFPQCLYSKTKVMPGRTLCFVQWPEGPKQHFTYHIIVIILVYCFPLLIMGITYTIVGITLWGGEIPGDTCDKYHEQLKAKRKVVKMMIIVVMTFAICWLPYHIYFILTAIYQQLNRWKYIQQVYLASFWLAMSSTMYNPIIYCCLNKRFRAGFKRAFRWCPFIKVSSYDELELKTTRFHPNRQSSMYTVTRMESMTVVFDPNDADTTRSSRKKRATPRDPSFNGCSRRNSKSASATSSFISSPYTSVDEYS
Description: The affinity of compounds of the invention for the human NK-3 receptor was determined by measuring the ability of compounds of the invention to competitively and reversibly displace a well-characterized NK-3 radioligand in a concentration-dependent manner.
^3H-SB222200 Binding Competition Assay with Human NK-3 Receptor
Membranes were prepared from Chinese hamster ovary recombinant cells stably expressing the human NK-3 receptor. The membranes were incubated with 5 nM ^3H-SB222200 (ARC) in a HEPES 25 mM/NaCl 0.1M/CaCl2 1 mM/MgCl2 5 mM/BSA 0.5%/Saponin 10 μg/ml buffer at pH 7.4 and various concentrations of compounds of the invention. The amount of ^3H-SB222200 bound to the receptor was determined after filtration by the quantification of membrane associated radioactivity using the TopCount-NXT reader (Packard).

human NK-2 receptor = human NK-2 receptor (Homo sapiens (Human), UniProt P21452); test: Selectivity assay: [125I]-Neurokinin A binding, human NK-2 receptor; conditions: 0.1 nM [125I]-Neurokinin A, CHO membranes; read-out: hNK-2 (Ki)
Chain of human NK-2 receptor (P21452 whole entry): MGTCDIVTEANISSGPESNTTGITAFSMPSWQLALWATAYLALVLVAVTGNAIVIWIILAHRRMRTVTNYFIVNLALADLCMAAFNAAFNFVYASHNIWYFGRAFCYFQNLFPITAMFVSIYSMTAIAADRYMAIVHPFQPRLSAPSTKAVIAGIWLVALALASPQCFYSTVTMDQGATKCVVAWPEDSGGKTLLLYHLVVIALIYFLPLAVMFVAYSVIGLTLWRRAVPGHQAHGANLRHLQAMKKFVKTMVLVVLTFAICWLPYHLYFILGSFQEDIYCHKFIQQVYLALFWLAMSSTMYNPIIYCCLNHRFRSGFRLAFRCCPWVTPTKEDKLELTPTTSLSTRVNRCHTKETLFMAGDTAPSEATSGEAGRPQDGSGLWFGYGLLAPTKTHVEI
Description: The affinity of compounds of the invention for the NK-2 receptor was evaluated in CHO recombinant cells which express the human NK-2 receptor. Membrane suspensions were prepared from these cells. […] Binding assays were performed in a 25 mM HEPES/1 mM CaCl2)/5 mM MgCl2/0.5% BSA/10 μg/ml saponin, at pH 7.4. […] The radioactivity retained on the filters was measured by using the TopCount-NXT reader (Packard).

human NK-3 receptor [2] = target: T1, human NK-3 receptor; test: Aequorin functional assay with human NK-3 receptor (antagonist testing vs NKA); type: cell-based; conditions: CHO cells, NKA at EC80 (3 nM); read-out: Functional assay: Aequorin assay with human NK-3 receptor hNK-3-AEQ (antagonist IC50)
Description: Aequorin Assay with Human NK-3 Receptor
Changes in intracellular calcium levels are a recognized indicator of G protein-coupled receptor activity. The efficacy of compounds of the invention to inhibit NKA-mediated NK-3 receptor activation was assessed by an in vitro Aequorin functional assay. Chinese Hamster Ovary recombinant cells expressing the human NK-3 receptor and a construct that encodes the photoprotein apoaequorin were used for this assay. In the presence of the cofactor coelenterazine, apoaequorin emits a measurable luminescence that is proportional to the amount of intracellular (cytoplasmic) free calcium.
The antagonist activity of compounds of the invention is measured following pre-incubation (3 minutes) of the compound (at various concentrations) with the cells, followed by addition of the reference agonist (NKA) at a final concentration equivalent to the EC80 (3 nM) and recording of emitted light (FDSS 6000 Hamamatsu) over the subsequent 90-second period. The intensity of the emitted light is integrated using the reader software. Compound antagonist activity is measured based on the concentration-dependent inhibition of the luminescence response to the addition of Neurokinin A.

plasma protein = test: Determination of plasma protein binding (equilibrium dialysis, RED); type: in vitro ADME; conditions: 4 hours at 37° C.
From the text: Determination of plasma protein binding The pharmacokinetic and pharmacodynamic properties of chemicals/drugs are largely a function of the reversible binding of chemicals to plasma or serum proteins. […] Consequently, the extent of the plasma protein binding (PPB) of a compound influences its action as well as its distribution and elimination.
The determination of plasma protein binding (PPB) of a compound is enabled by equilibrium dialysis, an accepted and standard method for reliable estimation of the non-bound drug fraction in plasma. RED (Rapid Equilibrium Dialysis) device insert is made of two side-by-side chambers separated by an O-ring-sealed vertical cylinder of dialysis membrane (MWCO ˜8,000). […] After 4 hours incubation at 37° C. under shaking, an aliquot is removed from each chamber and analyzed by a LC-MS/MS procedure enables the determination of both free and bound drug.
The “free fraction” may be calculated as 100%−% rPPB (i.e. the complementary percentage of that disclosed in Table 4, corresponding to the drug concentration that is unbound and therefore available to engage biological target and elicit pharmacological activity).

[3] = Table 2, 5 nM 3H-SB222200, CHO membranes, read-out: Competitive binding assay with human NK-3 receptor hNK-3 (Ki)
[4] = Table 3 (selectivity table), read-out: hNK-3 (Ki)

pKi (human NK-1 receptor) | pKi (human NK-3 receptor [1]; [3]) | pKi (human NK-3 receptor [1]; [4]) | pKi (human NK-2 receptor) | pIC50 (human NK-3 receptor [2]) | Exposure (% rPPB), bound drug fraction to plasma protein (plasma protein) [%] | SMILES
< 4.52 | 7.00 | 7.00 | < 4.52 | 6.55 | 27 | CC(F)c1noc(-c2nnc3n2CCN(C(=O)c2ccc(F)cc2)[C@@H]3C)n1 (single isomer, unassigned) [Compound 45-1]
< 4.52 | 7.08 | 7.08 | < 4.52 | 6.83 | 33 | CC(F)c1noc(-c2nnc3n2CCN(C(=O)c2ccc(F)cc2)[C@@H]3C)n1 (single isomer, unassigned) [Compound 45-2]
4.66 | 7.62 | 7.62 | 4.60 | 7.52 | 53 | Cc1nsc(-c2nnc3n2CCN(C(=O)c2ccc(F)c(Cl)c2)[C@@H]3C)n1 [Compound 6, (R)-(3-chloro-4-fluorophenyl)(8-methyl-3-(3-methyl-1,2,4-thiadiazol-5-yl)-5,6-dihydro-[1,2,4]triazolo[4,3-a]pyrazin-7(8H)-yl)methanone]
< 4.52 | 7.59 | 7.59 | 4.44 | 7.52 | 26 | Cc1nsc(-c2nnc3n2CCN(C(=O)c2cc(F)c(F)c(F)c2)[C@@H]3C)n1 [Compound 7, (R)-(8-methyl-3-(3-methyl-1,2,4-thiadiazol-5-yl)-5,6-dihydro-[1,2,4]triazolo[4,3-a]pyrazin-7(8H)-yl)(3,4,5-trifluorophenyl)methanone]
< 4.52 | 7.51 | 7.51 | 4.31 | 7.25 | 30 | Cc1nsc(-c2nnc3n2CCN(C(=O)c2cc(F)c(F)c(F)c2F)[C@@H]3C)n1 [Compound 10, (R)-(8-methyl-3-(3-methyl-1,2,4-thiadiazol-5-yl)-5,6-dihydro-[1,2,4]triazolo[4,3-a]pyrazin-7(8H)-yl)(2,3,4,5-tetrafluorophenyl)methanone]
< 4.52 | 7.35 | 7.35 | < 4.52 | 7.30 | 20 | Cc1nsc(-c2nnc3n2CCN(C(=O)c2cccc(F)c2)[C@@H]3C)n1 [Compound 15, (R)-(3-fluorophenyl)(8-methyl-3-(3-methyl-1,2,4-thiadiazol-5-yl)-5,6-dihydro-[1,2,4]triazolo[4,3-a]pyrazin-7(8H)-yl)methanone]
< 4.52 | 7.31 | 7.31 | 4.43 | 7.15 | 36 | Cc1nsc(-c2nnc3n2CCN(C(=O)c2cccc(Cl)c2)[C@@H]3C)n1 [Compound 16, (R)-(3-chlorophenyl)(8-methyl-3-(3-methyl-1,2,4-thiadiazol-5-yl)-5,6-dihydro-[1,2,4]triazolo[4,3-a]pyrazin-7(8H)-yl)methanone]
< 4.52 | 7.29 | 7.29 | < 4.52 | 7.30 | 24 | Cc1nsc(-c2nnc3n2CCN(C(=O)c2cc(F)cc(F)c2)[C@@H]3C)n1 [Compound 17, (R)-(3,5-difluorophenyl)(8-methyl-3-(3-methyl-1,2,4-thiadiazol-5-yl)-5,6-dihydro-[1,2,4]triazolo[4,3-a]pyrazin-7(8H)-yl)methanone]
< 4.52 | 7.27 | 7.27 | < 4.52 | 7.06 | 23 | Cc1nsc(-c2nnc3n2CCN(C(=O)c2ccc(F)cc2F)[C@@H]3C)n1 [Compound 18, (R)-(2,4-difluorophenyl)(8-methyl-3-(3-methyl-1,2,4-thiadiazol-5-yl)-5,6-dihydro-[1,2,4]triazolo[4,3-a]pyrazin-7(8H)-yl)methanone]
< 4.52 | 7.25 | 7.25 | < 4.52 | 6.96 | 51 | Cc1ccc(C(=O)N2CCn3c(-c4nc(C)ns4)nnc3[C@H]2C)cc1 [Compound 19, (R)-(8-methyl-3-(3-methyl-1,2,4-thiadiazol-5-yl)-5,6-dihydro-[1,2,4]triazolo[4,3-a]pyrazin-7(8H)-yl)(p-tolyl)methanone]
< 4.52 | 7.20 | 7.20 | < 4.52 | 6.82 | 38 | Cc1nsc(-c2nnc3n2CCN(C(=O)c2ccc(C(F)(F)F)cc2)[C@@H]3C)n1 [Compound 21, (R)-(8-methyl-3-(3-methyl-1,2,4-thiadiazol-5-yl)-5,6-dihydro-[1,2,4]triazolo[4,3-a]pyrazin-7(8H)-yl)(4-(trifluoromethyl)phenyl)methanone]
< 4.52 | 7.16 | 7.16 | < 4.52 | 6.89 | 27 | CC[C@@H]1c2nnc(-c3nc(C)ns3)n2CCN1C(=O)c1ccc(F)cc1 [Compound 22, (R)-(8-ethyl-3-(3-methyl-1,2,4-thiadiazol-5-yl)-5,6-dihydro-[1,2,4]triazolo[4,3-a]pyrazin-7(8H)-yl)(4-fluorophenyl)methanone]
< 4.52 | 7.11 | 7.11 | < 4.52 | 6.92 | 48 | CCC[C@@H]1c2nnc(-c3nc(C)ns3)n2CCN1C(=O)c1ccc(F)cc1 [Compound 24, (R)-(4-fluorophenyl)(3-(3-methyl-1,2,4-thiadiazol-5-yl)-8-propyl-5,6-dihydro-[1,2,4]triazolo[4,3-a]pyrazin-7(8H)-yl)methanone]
< 4.52 | 7.07 | 7.07 | < 4.52 | 6.96 | 19 | COc1cc(C(=O)N2CCn3c(-c4nc(C)ns4)nnc3[C@H]2C)ccc1F [Compound 25, (R)-(4-fluoro-3-methoxyphenyl)(8-methyl-3-(3-methyl-1,2,4-thiadiazol-5-yl)-5,6-dihydro-[1,2,4]triazolo[4,3-a]pyrazin-7(8H)-yl)methanone]
